Reference: ChEMBL document CHEMBL1141244, “Sulfonamide chalcone as a new class of alpha-glucosidase inhibitors” (Bioorg Med Chem Lett, 2005)
pIC50, pKi: −log10 of the molar value. Activity calls are given as the source filed them. The calls are words filed in the database; no cut-off is given here.

Key:
Saccharomyces cerevisiae = experiment: Inhibitory activity against baker's yeast alpha glucosidase at 200 uM
[1] = molecular target: Alpha-amylase (Bacillus licheniformis) (UniProt P06278); experiment: Inhibitory activity against Bacillus licheniformis alpha amylase at 200 uM
[2] = molecular target: Beta-amylase (Hordeum vulgare) (UniProt P16098); experiment: Inhibitory activity against barley beta amylase at 200 uM
Beta-amylase = Beta-amylase (Hordeum vulgare, UniProt P16098); experiment: Inhibitory activity against barley beta amylase; settings: for pIC50: read-out: IC50
Alpha-amylase = Alpha-amylase (Bacillus licheniformis, UniProt P06278); experiment: Inhibitory activity against Bacillus licheniformis alpha amylase; settings: for pIC50: read-out: IC50
[3] = Inhibitory activity against baker's yeast alpha glucosidase; design: species or system Saccharomyces cerevisiae

Chain of Alpha-amylase (P06278 whole entry): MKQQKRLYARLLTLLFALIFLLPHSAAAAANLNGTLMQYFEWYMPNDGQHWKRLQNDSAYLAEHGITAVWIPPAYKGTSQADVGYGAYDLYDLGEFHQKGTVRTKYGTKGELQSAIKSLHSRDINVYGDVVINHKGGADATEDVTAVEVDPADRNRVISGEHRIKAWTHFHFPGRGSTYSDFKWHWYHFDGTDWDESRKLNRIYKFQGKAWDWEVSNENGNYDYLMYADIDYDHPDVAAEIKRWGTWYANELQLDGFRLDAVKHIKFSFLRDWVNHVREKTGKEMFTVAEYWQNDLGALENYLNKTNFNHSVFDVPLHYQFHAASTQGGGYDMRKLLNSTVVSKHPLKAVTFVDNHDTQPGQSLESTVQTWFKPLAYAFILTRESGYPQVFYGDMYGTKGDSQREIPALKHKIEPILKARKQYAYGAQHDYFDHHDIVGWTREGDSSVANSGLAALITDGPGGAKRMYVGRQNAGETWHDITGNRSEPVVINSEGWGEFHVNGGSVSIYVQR
Chain of Alpha-amylase (Bacillus licheniformis) (P06278 whole entry): as above
Chain of Beta-amylase (Hordeum vulgare) (P16098 whole entry): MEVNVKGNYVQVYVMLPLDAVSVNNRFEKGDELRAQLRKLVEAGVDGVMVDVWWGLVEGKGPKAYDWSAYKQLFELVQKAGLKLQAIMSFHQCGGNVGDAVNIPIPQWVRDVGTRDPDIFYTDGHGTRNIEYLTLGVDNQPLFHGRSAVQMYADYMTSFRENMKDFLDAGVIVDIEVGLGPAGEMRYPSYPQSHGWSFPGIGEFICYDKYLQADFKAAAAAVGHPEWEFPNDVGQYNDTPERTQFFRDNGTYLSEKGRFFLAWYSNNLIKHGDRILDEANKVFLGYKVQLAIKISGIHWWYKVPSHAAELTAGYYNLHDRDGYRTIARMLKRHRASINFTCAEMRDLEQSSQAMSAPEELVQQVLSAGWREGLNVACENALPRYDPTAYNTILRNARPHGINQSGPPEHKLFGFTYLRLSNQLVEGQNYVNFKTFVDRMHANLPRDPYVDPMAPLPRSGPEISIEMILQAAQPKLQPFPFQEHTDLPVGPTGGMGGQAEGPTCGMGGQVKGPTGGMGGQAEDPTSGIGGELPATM
Chain of Beta-amylase (P16098 whole entry): as above

Structure (SMILES)	Activity (Saccharomyces cerevisiae)	Activity [1]	Activity [2]	pIC50 [3]	other results
O=C(/C=C/c1ccccc1O)c1ccccc1	inactive	inactive	inactive		
Cc1ccc(S(=O)(=O)Nc2ccc(C(=O)/C=C/c3ccc(O)cc3)cc2)cc1				6.01	pIC50 (Beta-amylase): 3.61; pIC50 (Alpha-amylase): 4.06; pKi [3]: 6.24
O=C(/C=C/c1cc(O)ccc1O)c1ccccc1	inactive	inactive	inactive		
Nc1ccc(C(=O)/C=C/c2ccc(O)c(O)c2)cc1				4.21	pIC50 (Beta-amylase): 3.90; IC50 (Alpha-amylase): Not Active
Nc1ccc(C(=O)/C=C/c2ccc(O)cc2)cc1				4.39	IC50 (Beta-amylase): Not Active; pIC50 (Alpha-amylase): 3.57
O=c1c(O)c(-c2ccc(O)c(O)c2)oc2cc(O)cc(O)c12	inactive	inactive	inactive		
Cc1ccc(S(=O)(=O)Nc2ccc(C(=O)/C=C/c3ccc(O)c(O)c3)cc2)cc1				6.40	pIC50 (Beta-amylase): 4.19; pIC50 (Alpha-amylase): 3.71; pKi [3]: 6.62
O=c1c(O)c(-c2cc(O)c(O)c(O)c2)oc2cc(O)cc(O)c12	inactive	inactive	inactive		
C[C@H]1O[C@H](O[C@H]2[C@H](O)[C@@H](O)[C@@H](O[C@H]3[C@H](O)[C@@H](O)C(O)O[C@@H]3CO)O[C@@H]2CO)[C@H](O)[C@@H](O)[C@@H]1N[C@H]1C=C(CO)[C@@H](O)[C@H](O)[C@H]1O (stereo not given in full) [ACARBOSE]				4.22	
O=C(/C=C/c1ccc(O)cc1)c1ccc(O)cc1	inactive	inactive	inactive		
Cc1ccc(S(=O)(=O)Nc2cccc(C(=O)/C=C/c3ccc(O)cc3)c2)cc1				4.91	pIC50 (Beta-amylase): 3.70; pIC50 (Alpha-amylase): 4.43; pKi [3]: 5.13
Oc1cc(O)c2c(c1)O[C@H](c1ccc(O)c(O)c1)[C@@H](O)C2	inactive	inactive	inactive		
O=C(/C=C/c1cccc(O)c1O)c1ccccc1	inactive	inactive	inactive		
O=C(/C=C/c1ccc(O)cc1)c1ccccc1	inactive	inactive	inactive		
Oc1cc(O)c2c(c1)O[C@@H](c1ccc(O)c(O)c1)[C@H](O)C2	inactive	inactive	inactive		
Nc1cccc(C(=O)/C=C/c2ccc(O)cc2)c1				< 3.70	pIC50 (Beta-amylase): 3.69; IC50 (Alpha-amylase): Not Active
O=C(/C=C/c1ccc(O)cc1O)c1ccccc1	inactive	inactive	inactive		
O=C(/C=C/c1ccc(O)c(O)c1)c1ccccc1	inactive	inactive	inactive		
Cc1ccc(S(=O)(=O)Nc2cccc(C(=O)/C=C/c3ccc(O)c(O)c3)c2)cc1				4.81	pIC50 (Beta-amylase): 4.61; pIC50 (Alpha-amylase): 4.77; pKi [3]: 5.03
O=C(/C=C/c1cccc(O)c1)c1ccc(O)cc1	inactive	inactive	inactive		
Nc1cccc(C(=O)/C=C/c2ccc(O)c(O)c2)c1				< 3.70	IC50 (Beta-amylase): Not Active; IC50 (Alpha-amylase): Not Active
